Experimental data published in publication PMC9960827, “Cloning and Characterization of Trypanosoma congolense and T. vivax Nucleoside Transporters Reveal the Potential of P1-Type Carriers for the Discovery of Broad-Spectrum Nucleoside-Based Therapeutics against Animal African Trypanosomiasis” (International Journal of Molecular Sciences, 2023).
Where two headings read alike, the source gives them in different places.

Key:
[1] = Resazurin toxicity assay on human embryonic kidney cells; assay type: cell-based; conditions: human
Protocol: (§1) EC50 values were determined by plotting to an equation for a sigmoid curve with variable slope (GraphPad Prism 8). All values were the average of at least three independent determinations on different days.

[2] = tested on: human embryonic kidney (HEK) cells; experiment: as above; assay type: cell-based; conditions: for SI T. congolense: selectivity index = EC50 (HEK cells)/EC50 (T. congolense); for SI T. equiperdum: selectivity index = EC50 (HEK cells)/EC50 (T. equiperdum); for SI T. evansi: selectivity index = EC50 (HEK cells)/EC50 (T. evansi)
Protocol: as §1

[3] = tested on: T. evansi; experiment: Alamar Blue (resazurin) assay, T. evansi; assay type: cell-based, Trypanosoma evansi; conditions: Trypanosoma evansi, read-out: T. evansi EC50
Protocol: as §1

[4] = tested on: T. congolense 6C3; experiment: microbe, parasite or virus in culture; assay type: cell-based, Trypanosoma congolense; conditions: for EC50: Trypanosoma congolense, diminazene resistant strain, resazurin, read-out: T. congolense 6C3 EC50; for T. congolense 6C3 RF: resistance factor = EC50 (test strain)/EC50(control strain)
Protocol: as §1

[5] = tested on: T.b.b. B48; experiment: Alamar Blue (resazurin) assay, T. b. brucei B48; assay type: cell-based, Trypanosoma brucei brucei; conditions: Trypanosoma brucei, read-out: T.b.b. B48 EC50
Protocol: as §1

[6] = tested on: L. mexicana SUPKO; experiment: microbe, parasite or virus in culture; assay type: cell-based, Leishmania mexicana; conditions: for EC50: Leishmania mexicana, read-out: SUPKO EC50, resazurin, promastigotes; for SUPKO RF (Cas9): Resistance Factor = EC50(SUPKO)/EC50(Cas9)
Protocol: as §1

[7] = tested on: L. mexicana SUPKO+TcoAT1; experiment: microbe, parasite or virus in culture; assay type: cell-based, Leishmania mexicana; conditions: for EC50: Leishmania mexicana, read-out: SUPKO+TcoAT1 EC50; for SUPKO+TcoAT1 RF (SUPKO): Resistance Factor relative to SUPKO
Protocol: as §1

[8] = tested on: L. mexicana SUPKO+TvxNT3; experiment: microbe, parasite or virus in culture; assay type: cell-based, Leishmania mexicana; conditions: for EC50: Leishmania mexicana, read-out: SUPKO+TvxNT3 EC50; for SUPKO+TvxNT3 RF (SUPKO): Resistance Factor relative to SUPKO
Protocol: as §1

[9] = tested on: T. equiperdum; experiment: Alamar Blue (resazurin) assay, T. equiperdum; assay type: cell-based, Trypanosoma equiperdum; conditions: Trypanosoma equiperdum, read-out: T. equiperdum EC50
Protocol: as §1

[10] = tested on: T. vivax; design: method as in Mabille et al. [69]; conditions: added for comparison only; ref Mabille et al. [69]; cited from earlier work
[11] = tested on: L. mexicana Cas9; experiment: Resazurin drug sensitivity assay, LmexCas9; assay type: cell-based, Leishmania mexicana; conditions: Leishmania mexicana, read-out: LmexCas9 EC50
Protocol: as §1

[12] = tested on: T. congolense IL3000; experiment: Alamar Blue (resazurin) assay, T. congolense IL3000; assay type: cell-based, Trypanosoma congolense; conditions: Trypanosoma congolense, read-out: T. congolense IL3000 EC50
Protocol: as §1

Nc1ncnc2c1c(F)cn2[C@@H]1O[C@H](CO)[C@@H](O)[C@H]1O [FH3167, 7-deaza-7-fluoroadenosine]
EC50 [1]: 0.49 ± 0.05 µM | SI T. congolense [2]: 1.1 | SI T. equiperdum [2]: 15 | SI T. evansi [2]: 2.7 | EC50 ([3]; resazurin): 0.18 ± 0.023 µM | EC50 [4]: 0.48 ± 0.1 µM | T. congolense 6C3 RF [4]: 1.06 | EC50 [5]: 0.16 ± 0.03 µM | EC50 [6]: 63.4 ± 5.5 µM | SUPKO RF (Cas9) [6]: 660 | EC50 [7]: 7.5 ± 0.9 µM | SUPKO+TcoAT1 RF (SUPKO) [7]: 8.48 | EC50 [8]: 57.2 ± 6.8 µM | SUPKO+TvxNT3 RF (SUPKO) [8]: 1.1 | EC50 ([9]; resazurin): 0.032 ± 0.007 µM | EC50 [10]: 0.038 ± 0.006 µM | EC50 [11]: 0.096 ± 0.009 µM | EC50 ([12]; BSF, resazurin): 0.45 ± 0.62 µM

Nc1ncnc2c1c(C(F)(F)F)cn2[C@@H]1O[C@H](CO)[C@@H](O)[C@H]1O [FH6367, 7-trifluoromethyl-7-deazaadenosine]
EC50 [1]: 0.49 ± 0.01 µM | SI T. congolense [2]: 0.3 | SI T. equiperdum [2]: 2.6 | SI T. evansi [2]: 0.7 | EC50 [3]: 0.68 ± 0.11 µM | EC50 [4]: 0.89 ± 0.17 µM | T. congolense 6C3 RF [4]: 0.50 | EC50 [5]: 0.9 ± 0.13 µM | EC50 [6]: > 100 µM | SUPKO RF (Cas9) [6]: >3.83 | EC50 [7]: 3.79 ± 0.34 µM | SUPKO+TcoAT1 RF (SUPKO) [7]: >26.4 | EC50 [8]: 7.4 ± 1.4 µM | SUPKO+TvxNT3 RF (SUPKO) [8]: >13.5 | EC50 [9]: 0.19 ± 0.03 µM | EC50 [10]: 0.82 ± 0.09 µM | EC50 [11]: 26.1 ± 6.4 µM | EC50 [12]: 1.8 ± 0.44 µM
